The text below walks through data of patent publication US20240050428A1 (Cullgen (Shanghai), Inc., priority 2020, published 2024).

One experiment relates to MV4;11 cells. The experiment is described as follows: Cell viability assay (CellTiter-Glo) in MV4;11 cells, alone or with gilteritinib. The class given is cell-based. Particulars: MV4;11 cells, three days, CellTiter-Glo, read-out: MV4.
The test system of another experiment is MOLM-13 cells. The experiment is described as follows: Cell viability assay (CellTiter-Glo) in MOLM-13 cells, alone or with gilteritinib. Type of experiment: cell-based. Conditions: MOLM-13 cells, three days, CellTiter-Glo. On the technique in general: Cellular ATP, detected with luciferase, serves as a proxy for viable cell number.
[1] abbreviates: Homo sapiens, MV4-11, 72 h, compound alone (without gilteritinib), 11 IC50.
[2] abbreviates: Homo sapiens, MV4-11, 72 h, with gilteritinib 10 nM, 11 IC50 gilteritinib.
Where [3] appears, read: Homo sapiens, MOLM-13, 72 h, compound alone (without gilteritinib), read-out: MOLM-13 IC50.
[4] abbreviates: Homo sapiens, MOLM-13, 72 h, with gilteritinib 20 nM, read-out: MOLM-13 IC50 gilteritinib.
Setting [5] is: Homo sapiens, MV4-11, 72 h, compound with gilteritinib 10 nM, 11 IC50 gilteritinib.
The mark [6] stands for this setting: Homo sapiens, MOLM-13, 72 h, compound with gilteritinib 20 nM, read-out: MOLM-13 IC50 gilteritinib.

Read-outs that look alike come from different tables or passages of the source. Where only a bound is given, the exact number is not on record here.

On to `O=C1CCC(N2C(=O)c3ccc(NCCC[C@H]4C[C@H](n5cc(-c6cnc7c(N8CCNCC8)cccc7n6)cn5)C4)cc3C2=O)C(=O)N1` (stereo partly drawn) [GS-405, 2-(2,6-Dioxopiperidin-3-yl)-5-((3-(trans-3-(4-(5-(piperazin-1-yl)quinoxalin-2-yl)-1H-pyrazol-1-yl)cyclobutyl)propyl)amino)isoindoline-1,3-dione], for which the IC50 in the experiment with MV4;11 cells (setting [1]) was 10 to 100 nM; in the experiment with MV4;11 cells (setting [2]), 10 to 100 nM; in the experiment with MOLM-13 cells (setting [3]) it was 100 to 1000 nM; in the experiment with MOLM-13 cells (setting [4]), under 10 nM.

On to `Cc1nn([C@H]2C[C@H](CCCNc3ccc4c(c3)C(=O)N(C3CCC(=O)NC3=O)C4=O)C2)cc1-c1cnc2ccc(N3C[C@H]4C[C@@H]3CN4C)cc2n1` (stereo partly drawn) [GS-407, 2-(2,6-dioxopiperidin-3-yl)-5-((3-(trans-3-(3-methyl-4-(7-((1R,4R)-5-methyl-2,5-diazabicyclo[2.2.1]heptan-2-yl)quinoxalin-2-yl)-1H-pyrazol-1-yl)cyclobutyl)propyl)amino)isoindoline-1,3-dione], for which the IC50 with MV4;11 cells (setting [1]) is over 1000 nM; with MV4;11 cells (setting [2]), 100 to 1000 nM; in the experiment on MOLM-13 cells (setting [3]), over 1000 nM; in the experiment on MOLM-13 cells (setting [4]) it was 10 to 100 nM.

As for `C[C@@H]1CN(c2ccc3ncc(-c4cnn([C@H]5C[C@H](CCCNc6ccc7c(c6)C(=O)N(C6CCC(=O)NC6=O)C7=O)C5)c4)nc3c2)C[C@H](C)N1C` (stereo partly drawn) [GS-408, 2-(2,6-dioxopiperidin-3-yl)-5-((3-(trans-3-(4-(7-((3S,5R)-3,4,5-trimethylpiperazin-1-yl)quinoxalin-2-yl)-1H-pyrazol-1-yl)cyclobutyl)propyl)amino)isoindoline-1,3-dione], the IC50 was 100 to 1000 nM with MV4;11 cells (setting [1]), 10 to 100 nM with MV4;11 cells (setting [2]), 100 to 1000 nM with MOLM-13 cells (setting [3]) and 10 to 100 nM in the experiment on MOLM-13 cells (setting [4]).

In the case of `CN1C2CCC1CN(c1ccc3ncc(-c4cnn([C@H]5C[C@H](CCCNc6ccc7c(c6)C(=O)N(C6CCC(=O)NC6=O)C7=O)C5)c4)nc3c1)C2` (stereo partly drawn) [GS-409, 2-(2,6-dioxopiperidin-3-yl)-5-((3-(trans-3-(4-(7-(8-methyl-3,8-diazabicyclo[3.2.1]octan-3-yl)quinoxalin-2-yl)-1H-pyrazol-1-yl)cyclobutyl)propyl)amino)isoindoline-1,3-dione], the IC50 was 10 to 100 nM in the experiment on MV4;11 cells (setting [1]), 10 to 100 nM in the experiment with MV4;11 cells (setting [2]), 10 to 100 nM in the experiment with MOLM-13 cells (setting [3]) and under 10 nM with MOLM-13 cells (setting [4]).

Regarding `O=C1CCC(N2C(=O)c3ccc(NCCC[C@H]4C[C@H](n5cc(-c6cnc7ccc(N8C[C@H]9C[C@@H]8CO9)cc7n6)cn5)C4)cc3C2=O)C(=O)N1` (stereo partly drawn) [GS-410, 5-((3-(trans-3-(4-(7-((1R,4R)-2-oxa-5-azabicyclo[2.2.1]heptan-5-yl)quinoxalin-2-yl)-1H-pyrazol-1-yl)cyclobutyl)propyl)amino)-2-(2,6-dioxopiperidin-3-yl)isoindoline-1,3-dione], the IC50 is 10 to 100 nM in the experiment with MV4;11 cells (setting [1]), under 10 nM with MV4;11 cells (setting [2]), 10 to 100 nM with MOLM-13 cells (setting [3]) and under 10 nM with MOLM-13 cells (setting [4]).

Turning to `CN1C[C@H]2C[C@@H]1CN2c1ccc2ncc(-c3cnn([C@H]4C[C@H](CCCNc5ccc6c(c5)C(=O)N(C5CCC(=O)NC5=O)C6=O)C4)c3)nc2c1` (stereo partly drawn) [GS-411, 2-(2,6-dioxopiperidin-3-yl)-5-((3-(trans-3-(4-(7-((1R,4R)-5-methyl-2,5-diazabicyclo[2.2.1]heptan-2-yl)quinoxalin-2-yl)-1H-pyrazol-1-yl)cyclobutyl)propyl)amino)isoindoline-1,3-dione], the IC50 in the experiment on MV4;11 cells (setting [1]) is 10 to 100 nM; in the experiment on MV4;11 cells (setting [2]) it was under 10 nM; with MOLM-13 cells (setting [3]), over 1000 nM; in the experiment with MOLM-13 cells (setting [4]), under 10 nM.

`CN1CCN(c2ccc3nc(-c4cnn([C@H]5C[C@@H](CCCNc6ccc7c(c6)C(=O)N(C6CCC(=O)NC6=O)C7=O)C5)c4)cnc3c2)CC1` (stereo partly drawn) [GS-412, 2-(2,6-dioxopiperidin-3-yl)-5-((3-(cis-3-(4-(6-(4-methylpiperazin-1-yl)quinoxalin-2-yl)-1H-pyrazol-1-yl)cyclobutyl)propyl)amino)isoindoline-1,3-dione]: the IC50 lay in the range of 100 to 1000 nM in the experiment with MV4;11 cells (setting [1]), 10 to 100 nM with MV4;11 cells (setting [5]), 100 to 1000 nM in the experiment on MOLM-13 cells (setting [3]) and 10 to 100 nM in the experiment with MOLM-13 cells (setting [6]).

In the case of `CN1CCN(c2cccc(-c3cnn([C@H]4C[C@H](CCCNc5ccc6c(c5)C(=O)N(C5CCC(=O)NC5=O)C6=O)C4)c3)n2)CC1` (stereo partly drawn) [GS-413, 2-(2,6-dioxopiperidin-3-yl)-5-((3-(trans-3-(4-(6-(4-methylpiperazin-1-yl)pyridin-2-yl)-1H-pyrazol-1-yl)cyclobutyl)propyl)amino)isoindoline-1,3-dione], the IC50 was 100 to 1000 nM in the experiment with MV4;11 cells (setting [5]); 100 to 1000 nM in the experiment with MV4;11 cells (compound alone (without gilteritinib), 11 IC50); 10 to 100 nM in the experiment on MOLM-13 cells (setting [6]); over 1000 nM in the experiment on MOLM-13 cells (compound alone (without gilteritinib), read-out: MOLM-13 IC50).

Regarding `CN1CCN(c2ccc3ncc(-c4cnn([C@H]5C[C@H](CCCNc6ccc7c(c6)C(=O)N(C6CCC(=O)NC6=O)C7=O)C5)c4)nc3c2)CC12CC2` (stereo partly drawn) [GS-414, 2-(2,6-dioxopiperidin-3-yl)-5-((3-(trans-3-(4-(7-(4-methyl-4,7-diazaspiro[2.5]octan-7-yl)quinoxalin-2-yl)-1H-pyrazol-1-yl)cyclobutyl)propyl)amino)isoindoline-1,3-dione], the IC50 in the experiment with MV4;11 cells (setting [1]) lay within 100 to 1000 nM; in the experiment on MV4;11 cells (setting [5]), 10 to 100 nM; in the experiment on MOLM-13 cells (setting [3]) it was 100 to 1000 nM; in the experiment with MOLM-13 cells (setting [6]), 10 to 100 nM.

With `O=C1CCC(N2C(=O)c3ccc(NCCC[C@H]4C[C@H](n5cc(-c6cnc7ccc(N8C[C@H]9C[C@@H]8CN9)cc7n6)cn5)C4)cc3C2=O)C(=O)N1` (stereo partly drawn) [GS-415, 5-((3-(trans-3-(4-(7-((1R,4R)-2,5-diazabicyclo[2.2.1]heptan-2-yl)quinoxalin-2-yl)-1H-pyrazol-1-yl)cyclobutyl)propyl)amino)-2-(2,6-dioxopiperidin-3-yl)isoindoline-1,3-dione], the IC50 with MV4;11 cells (setting [1]), with MV4;11 cells (setting [5]), with MOLM-13 cells (setting [3]) and in the experiment with MOLM-13 cells (setting [6]) was over 1000 nM throughout.

As for `CN1CCN(c2cccc(-c3cnn([C@H]4C[C@H](CNc5ccc6c(c5)C(=O)N(C5CCC(=O)NC5=O)C6=O)C4)c3)n2)CC1` (stereo partly drawn) [GS-416, 2-(2,6-dioxopiperidin-3-yl)-5-(((trans-3-(4-(6-(4-methylpiperazin-1-yl)pyridin-2-yl)-1H-pyrazol-1-yl)cyclobutyl)methyl)amino)isoindoline-1,3-dione], the IC50 in the experiment on MV4;11 cells (setting [1]) was over 1000 nM; with MV4;11 cells (setting [5]), over 1000 nM; in the experiment with MOLM-13 cells (setting [3]), over 1000 nM; with MOLM-13 cells (setting [6]) it was 100 to 1000 nM.

As for `Cc1nn([C@H]2C[C@H](CCCNc3ccc4c(c3)C(=O)N(C3CCC(=O)NC3=O)C4=O)C2)cc1-c1cnc2c(N3CCN(C)CC3)cccc2n1` (stereo partly drawn) [GS-417, 2-(2,6-dioxopiperidin-3-yl)-5-((3-(trans-3-(3-methyl-4-(5-(4-methylpiperazin-1-yl)quinoxalin-2-yl)-1H-pyrazol-1-yl)cyclobutyl)propyl)amino)isoindoline-1,3-dione], the IC50 lay in the range of 100 to 1000 nM in the experiment on MV4;11 cells (setting [1]), 10 to 100 nM in the experiment on MV4;11 cells (setting [5]), 100 to 1000 nM in the experiment with MOLM-13 cells (setting [3]) and 10 to 100 nM with MOLM-13 cells (setting [6]).

`Cc1nn([C@H]2C[C@H](CCCNc3ccc4c(c3)C(=O)N(C3CCC(=O)NC3=O)C4=O)C2)cc1-c1cnc2c(C3CCN(C)CC3)cccc2n1` (stereo partly drawn) [GS-418, 2-(2,6-dioxopiperidin-3-yl)-5-((3-(trans-3-(3-methyl-4-(5-(1-methylpiperidin-4-yl)quinoxalin-2-yl)-1H-pyrazol-1-yl)cyclobutyl)propyl)amino)isoindoline-1,3-dione]: the IC50 with MV4;11 cells (setting [1]) was 10 to 100 nM; in the experiment on MV4;11 cells (setting [5]), under 10 nM; in the experiment on MOLM-13 cells (setting [3]), 10 to 100 nM; with MOLM-13 cells (setting [6]) it was under 10 nM.
